The values that follow come from paper PMC7341468 (BMC Pharmacology & Toxicology, 2020).

The subject of test [1] is methicillin-resistant Staphylococcus aureus (MRSA). As to the method: This retrospective study was conducted between June 2015 and May 2019, and was approved by the Institutional Review Board of Hyogo College of Medicine (No. 3266). […] The analysis of Cmin and the safety population included all eligible patients.
The test system of a further test is MRSA isolates. Conditions: all MRSA isolates; microdilution, CLSI M02 and M07.

In the case of teicoplanin, in test [1] (all patients of the clinical efficacy population, 55 of 76 patients), the “Clinical success at the end of the therapy” value stood at 72.4%. Also, in test [1] (factor: Enhanced high dose loading regimen, univariate analysis), the “Crude odds ratio (95% CI) for early clinical response” value is on record as 0.90 (0.31–2.63). In test [1] (human, in vivo), the “Adjusted odds ratio (95%CI) for early clinical response” value is 3.95 (1.25–12.53). Moreover, the “Teicoplanin MICs” value in the test with MRSA isolates was at most 2 µg/mL.
